# Measurements published in article PMC12679585, “Design, synthesis, and characterization of novel 5-ethylsulfonyl-indazole-3-carboxamides as dual VEGFR-2 and EGFR inhibitors: apoptotic antiproliferative and immunomodulatory evaluations” (RSC Advances, 2025).
# Experiments:
# [1] = Cell viability assay (MTT) on normal mammary epithelial cells; format: cell-based; details: human, MCF-10A normal mammary gland epithelial cells, four days
# Procedure: This test assesses the safety of new compounds 8a–l on normal cell lines. The efficacy of 8a–l was tested on the normal human mammary gland epithelial cell line MCF-10A. MCF-10A cells were incubated with 50 µM of each tested compound for four days. Cell viability was assessed using the MTT assay.[11,48] Appendix A has extra experimental details.
# This assay evaluates the impact of novel compounds 8a–l on normal cell lines to determine their safety, an essential consideration in drug discovery. The efficacy of the examined compounds was evaluated utilizing the normal human mammary gland epithelial cell line MCF-10A. […]
# 4.2. Biological evaluation
# 4.2.1 Cell Viability assay (MTT assay)
# (§1) MTT assay was performed to investigate the effect of the synthesized compounds on mammary epithelial cells (MCF-10A). The cells were propagated in medium consisting of Ham's F-12 medium/ Dulbecco's modified Eagle's medium (DMEM) (1:1) supplemented with 10% foetal calf serum (GIBCO, UK), 2 mM glutamine, insulin (10 μg/mL), hydrocortisone (500 ng/mL) and epidermal growth factor (20 ng/mL). Trypsin ethylenediamine tetra acetic acid (EDTA) was used to passage the cells after every 2-3 days. 96-well flat-bottomed cell culture plates were used to seed the cells at a density of 10^4 cells mL-1. The medium was aspirated from all the wells of culture plates after 24 h followed by the addition of synthesized compounds (in 200 μL medium to yield a final concentration of 0.1% (v/v) dimethyl sulfoxide) into individual wells of the plates.
# (§2) Four wells were designated to a single compound. The plates were allowed to incubate at 37°C for 96 h. Afterwards, the medium was aspirated and 3-[4,5-dimethylthiazol-2-yl]-2,5-diphenyltetrazolium bromide (MTT) (0.4 mg/mL) in medium was added to each well and subsequently incubated for 3 h. The medium was aspirated and 150 μL dimethyl sulfoxide (DMSO) was added to each well. The plates were vortexed followed by the measurement of absorbance at 540 nm on a microplate reader. […]
# HCT-116 = assay: Antiproliferative assay (MTT); format: cell-based; details: Homo sapiens, HCT-116 colorectal, mean of three experiments ± SD
# Description: (§3) The MTT assay[53,54] was employed to evaluate the antiproliferative efficacy of new compounds 8a–l against two human cancer cell lines: MCF-7 (breast) and HCT-116 (colorectal carcinoma). Erlotinib was employed as the benchmark. Check Appendix A for additional experimental information.
# (§4) The MTT assay[53,54] was used to evaluate the antiproliferative properties of novel compounds 8a–l against two human cancer cell lines: MCF-7 (breast cancer) and HCT-116 (colorectal carcinoma). Erlotinib was utilized as the reference. […] The provided values represent the means of three experiments ± standard deviation (SD). […]
# as §1, with “of” for “MTT assay was performed to investigate the effect of the synthesized compounds on mammary epithelial cells (MCF-10A). The cells were propagated in medium consisting of”
# as §2
# (§5) All cell lines […]
# (§6) were obtained from ATCC (American Type Cell Culture). […]
# (§7) μM), benzamidine HCl (16 μg/mL), NaCl (10 mM),leupeptin (10 μg/mL) and pepstatin (10 μg/mL) at 0°C for 20 min at pH 7.4, followed by centrifugation for 20 min. To eliminate the nonspecifically bound material, a Ni-NTA super flow packed column was (1 picture or pasted object on this page, not shown here)
# MCF-7 = assay: Antiproliferative assay (MTT); format: cell-based; details: Homo sapiens, MCF7, MCF-7 breast, mean of three experiments ± SD
# Description: as §3, §4
# as §1, with “of” for “MTT assay was performed to investigate the effect of the synthesized compounds on mammary epithelial cells (MCF-10A). The cells were propagated in medium consisting of”
# as §2, §5, §6, §7
# HCT-116 and MCF-7 = assay: Antiproliferative assay, average over the two cell lines; format: cell-based; details: Homo sapiens; average of HCT-116 and MCF-7; read-out: Average IC50 (GI50)
# Description: as §3
# The MTT assay[53,54] was used to evaluate the antiproliferative properties of novel compounds 8a–l against two human cancer cell lines: MCF-7 (breast cancer) and HCT-116 (colorectal carcinoma). Erlotinib was utilized as the reference. […] The provided values represent the means of three experiments ± standard deviation (SD).
# VEGFR-2 = VEGFR-2 (Homo sapiens, UniProt P35968); assay: VEGFR-2 inhibitory assay
# Procedure: Prepare all the solutions using autoclaved, deionized water and analytical grade
# reagents. Prepare and store all the reagents at room temperature (unless indicated
# EDTA, adjust the pH to 8.0 using NaOH solution, add 5 mL ultra-pure water; 1×Kinase
# solution (1 M), 1 mL DTT, 50 μL tween-20, 450 mL ultrapure water, adjust pH to 7.5
# and constant volume to 500 mL using ultrapure water; 4×Stop solution (40 mM): Mix
# 0.8 mL of the foregoing EDTA solution, 1 mL 10×Detection Buffer and 8.2 mL ultra-
# pure water; 1×Detection Buffer: Mix 1 mL 10×Detection Buffer with 9 mL water;
# before use). The assays used an ULight-labeled peptide substrate and a Europium-
# W1024-labeled antiphosphotyrosine antibody. The VEGFR-2 was purchased from
# Carna Biosciences, Inc. (New York, USA). The 384-well plates were obtained from
# PerkinElmer. Compounds were dissolved in DMSO and diluted to 11 concentrations at
# 2×VEGFR-2 kinase solution (0.5 nM) was added to 384-well plates homogeneous
# mixing and pre-reaction at room temperature for 30 min. […]
# well plate, The final concentration of DMSO in the mixing system was 4%. […] The plate was read using an Envision plate reader. The inhibition rate (%) = (positive well reading-compound well reading)/(positive well reading-negative well reading)×100. The corresponding IC50 values were calculated using GraphPad Prism 5.0.
# EGFR = EGFR (Homo sapiens, UniProt P00533); assay: EGFR inhibitory assay (EGFR-TK assay)
# EGFR, sequence (P00533 669-1210): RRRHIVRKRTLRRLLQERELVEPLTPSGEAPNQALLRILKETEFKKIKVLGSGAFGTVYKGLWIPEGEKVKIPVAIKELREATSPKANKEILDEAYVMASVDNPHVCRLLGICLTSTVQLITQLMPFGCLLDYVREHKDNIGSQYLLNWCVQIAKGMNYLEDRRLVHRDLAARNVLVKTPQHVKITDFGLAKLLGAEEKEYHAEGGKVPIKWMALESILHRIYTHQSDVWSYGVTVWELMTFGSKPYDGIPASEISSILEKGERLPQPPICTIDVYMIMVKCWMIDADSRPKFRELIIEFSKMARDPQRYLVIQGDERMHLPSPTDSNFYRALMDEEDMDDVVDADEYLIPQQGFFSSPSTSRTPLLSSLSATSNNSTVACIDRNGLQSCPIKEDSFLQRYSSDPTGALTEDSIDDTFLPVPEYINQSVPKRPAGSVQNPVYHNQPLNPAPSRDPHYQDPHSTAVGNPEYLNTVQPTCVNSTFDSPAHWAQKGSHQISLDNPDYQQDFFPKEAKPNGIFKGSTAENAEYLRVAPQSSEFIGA
# Procedure: Erlotinib was used as positive control in the assay.
# To record autophosphorylation level, EGFR kinase assay was carried out on the basis of DELFIA/Time-Resolved Fluorometry. The compounds were first dissolved in DMSO
# absolute, subsequent to dilution to appropriate concentration using HEPES (25 mM) at
# pH 7.4. Each compound (10 μL) was incubated with recombinant enzyme (10 μL, 5 ng for EGFR, 1:80 dilution in 100 mM HEPES) for 10 min at 25 °C, subsequent to the addition of 5X buffer (10 μL, containing 2 mM MnCl2, 100 μM Na3VO4, 20 mM HEPES and 1 mM DTT) and ATP-MgCl2 (20 μL, containing 0.1 mM ATP and 50 mM MgCl2) and incubation for 1h. The negative and positive controls were included in each plate by the incubation of enzyme either with or without ATP-MgCl2. The liquid was removed after incubation and the plates were washed thrice using a wash buffer.
# Europium-tagged antiphosphotyrosine antibody (75 μL, 400 ng) was added to each well followed by incubation of 1h and then washing of the plates using buffer. The enhancement solution was added to each well and the signal was recorded at excitation
# The autophosphorylation percentage inhibition by compounds was calculated using the following equation:
# Using the curves of percentage inhibition of eight concentrations of each compound,
# were from EGFR because the enzyme preparation contained low impurities.
# VEGFR-2, sequence (P35968 20-1356): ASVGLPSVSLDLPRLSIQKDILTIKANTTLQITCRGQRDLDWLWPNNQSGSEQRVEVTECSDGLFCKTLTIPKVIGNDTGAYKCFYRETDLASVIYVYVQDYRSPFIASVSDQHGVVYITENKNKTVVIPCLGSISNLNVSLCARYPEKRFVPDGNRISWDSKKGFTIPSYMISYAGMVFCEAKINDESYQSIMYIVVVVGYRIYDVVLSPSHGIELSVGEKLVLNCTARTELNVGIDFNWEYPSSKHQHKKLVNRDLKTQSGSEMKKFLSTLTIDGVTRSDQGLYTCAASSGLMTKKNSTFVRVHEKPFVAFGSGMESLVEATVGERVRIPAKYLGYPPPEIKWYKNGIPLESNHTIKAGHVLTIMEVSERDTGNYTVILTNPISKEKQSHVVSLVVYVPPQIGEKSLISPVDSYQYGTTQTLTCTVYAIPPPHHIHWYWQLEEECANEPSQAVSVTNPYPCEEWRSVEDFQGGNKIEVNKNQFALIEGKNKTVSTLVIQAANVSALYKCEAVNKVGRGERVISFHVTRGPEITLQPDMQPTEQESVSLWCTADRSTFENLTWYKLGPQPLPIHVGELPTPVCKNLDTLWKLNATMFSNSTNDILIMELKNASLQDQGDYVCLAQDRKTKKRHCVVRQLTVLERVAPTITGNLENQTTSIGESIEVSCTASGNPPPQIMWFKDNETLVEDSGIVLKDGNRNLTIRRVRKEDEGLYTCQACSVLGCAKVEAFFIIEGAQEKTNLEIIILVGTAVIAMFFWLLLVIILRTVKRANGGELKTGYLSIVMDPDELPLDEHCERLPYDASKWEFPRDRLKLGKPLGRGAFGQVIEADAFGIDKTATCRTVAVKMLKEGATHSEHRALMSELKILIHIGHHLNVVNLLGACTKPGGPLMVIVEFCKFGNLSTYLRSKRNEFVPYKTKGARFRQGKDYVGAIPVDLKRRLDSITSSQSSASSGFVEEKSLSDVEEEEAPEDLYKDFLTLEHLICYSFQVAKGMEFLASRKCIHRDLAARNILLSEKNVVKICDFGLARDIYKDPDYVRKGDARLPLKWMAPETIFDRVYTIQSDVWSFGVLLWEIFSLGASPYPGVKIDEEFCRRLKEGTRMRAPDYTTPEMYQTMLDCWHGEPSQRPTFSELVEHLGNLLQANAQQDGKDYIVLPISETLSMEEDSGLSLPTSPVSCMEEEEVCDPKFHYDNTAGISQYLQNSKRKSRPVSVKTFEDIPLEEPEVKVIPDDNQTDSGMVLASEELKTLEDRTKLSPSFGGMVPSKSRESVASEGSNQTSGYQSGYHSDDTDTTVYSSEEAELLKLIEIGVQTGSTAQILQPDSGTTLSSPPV
Structure (SMILES),"viability at 4 days, 50 µM [1]",IC50 (HCT-116),IC50 (MCF-7),IC50 (HCT-116 and MCF-7),IC50 (VEGFR-2),IC50 (EGFR)
"CCS(=O)(=O)c1ccc2[nH]nc(C(=O)NNC(=O)NC3CCCCCC3)c2c1 [Compound 8h, 2-(5-(Ethylsulfonyl)-1H-indazole-3-carbonyl)-N-(cycloheptyl)hydrazine-1-carboxamide]",90%,23 ± 1 nM,25 ± 1 nM,24 nM,12 ± 1 nM,68 ± 5 nM
"CCS(=O)(=O)c1ccc2[nH]nc(C(=O)NNC(=O)NC34CC5CC(CC(C5)C3)C4)c2c1 [Compound 8g, 2-(5-(Ethylsulfonyl)-1H-indazole-3-carbonyl)-N-(adamantan-1-yl)hydrazine-1-carboxamide]",91%,24 ± 1 nM,28 ± 1 nM,26 nM,16 ± 1 nM,71 ± 5 nM
